# Test results as given in publication PMC7251123, “CX-5461 activates the DNA damage response and demonstrates therapeutic efficacy in high-grade serous ovarian cancer” (Nature Communications, 2020).
# Key:
# [1] = test system: OVCAR4 cells; experiment: Mini drug screen, proliferation by DAPI staining and Cellomics imaging; assay type: cell-based, human; conditions: OVCAR4
# Text: Since CX-5461 in combination with BMN-673 lead to increased DNA damage, we hypothesized that combining CX-5461 with PARPi or other DNA repair and DDR inhibitors (DDR therapy) may improve the efficacy of treating HGSOC. We therefore performed a focused/boutique drug screen in the HR-proficient OVCAR4 cells for DNA repair and DDR inhibitors that may cooperate with CX-5461 to enhance growth arrest (Fig. 8a). […] We next examined the cooperation between CX-5461 and BMN-673 or ATRi in inducing cell death in three additional HR-proficient HGSOC cell lines (Supplementary Fig. 3C) and identified robust and significant interactions between BMN-673 and CX-5461 in inducing cell death compared with the ATRi (VE-821) (Fig. 8b). In addition, dose-response curves of BMN-673 in the presence or absence of CX-5461 confirmed CX-5461’s strong interaction with BMN-673 (Fig. 8c).
# Colour-coding denotes the level of proliferation as measured by DAPI staining and imaging using Cellomics (green denotes reduced proliferation). Dose response of single drug treatments were corrected for vehicle control and the combination was corrected for response to 80 nM CX-5461, the average values of n = 5 are presented. The combination of CX-5461 with BMN-673 or ATRi is highlighted by yellow boxes. b Quantitation of SubG1 DNA content by PI staining of cells treated with vehicle, 100 nM CX-5461, 1 μM VE-821, 100 nM BMN-673 or in combination for 7 days (n = 3 biologically independent experiments). Error bars represent mean ± SEM. Flow cytometry gating strategy is shown in Supplementary Fig. 3D. C) Representative BMN-673 dose response curves ± 30 nM CX-5461. Cell proliferation was measured using SRB assays at 5 days post-treatment. Dose response curves for BMN-673 were corrected for DMSO treatment control and the combination was corrected for response to 30 nM CX-5461. Representative of three biological replicates. Error bars represent mean ± SEM of n = 5 technical replicates. d BrdU cell cycle analysis of cells treated with vehicle, 1 μM CX-5461, 100 nM BMN-673 or in combination for 72 h as described in Fig. 3b and Supplementary Fig. 3D. n = 3, mean ± SEM. e In vitro proliferation time-course assessed by cell confluency using IncuCyte ZOOM. Representative of n = 3 biological replicates, mean ± SEM of five technical replicates. Dashed lines denote re-supplement of media with drugs. f CX-5461 and BMN-673 cooperate in inhibiting clonogenic survival. Representative image of n = 6 biologically independent experiments for OVCAR8 and OVCAR8 RAD51C KO cells and n = 3 biological replicates for FT282 cells, mean ± SEM. g Clonogenic assay of OV90 cells. n = 3 technical replicates. Statistical analysis (in b, d and f) was performed using a two-sided one-way ANOVA, Tukey’s multiple comparisons test (adjusted p-values are shown). TEXT PRINTED IN THE PICTURE: (a) CX-5461: GI20 80 nM
# [2] = test system: panel of 32 established human OVCA cell lines; experiment: Cell proliferation dose response (IncuCyte ZOOM), 48 h, whole panel; assay type: cell-based; conditions: 32 OVCA cell lines, threshold for sensitive, read-out: geometric median of GI50
# Protocol: The in vitro effects of CX-5461 on human OVCA cells were evaluated using a panel of 32 established human OVCA cell lines. These cell lines were selected to be representative of a range of histologic OVCA subtypes (Supplementary Table 1). Increasing concentrations (1 nM–10 μM) of CX-5461 were used to assess the concentration of drug that induced a 50% reduction in cell proliferation (GI50) at 48 hours (h). […] There was no statistically significant correlation between TP53 mutation status and sensitivity to CX-5461 (Supplementary Table 1, Fig. 1b). The efficacy of growth inhibition by CX-5461 correlated with a higher rate of basal rDNA transcription in the sensitive compared with the resistant OVCA cell lines (Fig. 1c).
# Fig. 1 Sensitivity of ovarian cancer (OVCA) cell lines to CX-5461. a CX-5461 doses that induce 50% growth inhibition (GI50) at 48 hours. Error bars represent mean ± standard deviation (SD). […]
# For assessing OVCA cells’ sensitivity to CX-5461, dose response curves were generated for each cell line by plating cells in 96-well plates, culturing them for 24 hours and then treating them with either vehicle or increasing concentrations of drug (0, 0.001, 0.003, 0.01, 0.03, 0.1, 0.3, 1, 3, 10 and 30 μM CX-5461) for 48 h. Cell number was assessed using the IncuCyte ZOOM imaging system (Essen BioScience). […] During this time the degree of confluency was measured every 24 h. […]
# [3] = test system: replication forks in OVCAR8 cells; experiment: DNA fibre analysis after 24 h pre-treatment; assay type: cell-based, human; conditions: OVCAR8, 100 nM, 24 h pre-treatment then CldU/IdU labelling
# Protocol: Error bars represent mean ± SD. d DNA fibre analysis of OVCAR8 cells pre-treated with 100 nM CX-5461, 100 nM BMN-673 or in combination, washed then sequentially labelled with CldU and IdU as indicated in the schematic (top). Fibres were processed and analyzed as described above. n = 150 replication tracks were analysed over two independent experiments. Error bars represent mean ± SD.
# We therefore performed DNA fibre analysis to investigate the effect of CX-5461 on fork stabilization (Fig. 6c and Supplementary Fig. 8A) in OVCAR8 cells. Nascent replication tracks were sequentially labelled with CldU and IdU before treatment with CX-5461 for 3 h. […] We next assessed whether DNA damage induced by CX-5461 treatment affects fork progression by pre-treating cells with CX-5461 for 24 h and then pulse labelled with both analogs (Fig. 6d).
smiles,measurement,setting,value
Cc1cnc(CNC(=O)c2c(=O)c3ccc(N4CCCN(C)CC4)nc3n3c2sc2ccccc23)cn1 [CX-5461],GI20,[1],0.08 µM
same,GI50,[2],0.363 µM
same,fork progression / fork length,[3],no effect on fork length
